The text below walks through data of patent publication US6114537A, “Process for scavenging thiols” (Apotex Inc., priority 1997, dated 2000).

The target of one data set is Cathepsin L (Homo sapiens, UniProt P07711). Put plainly: Inhibition of Cathepsin L, enzyme assay and kinetic measurements. It counts as biochemical. As to conditions: for kinact/KI: approximates kon, read-out: kabs /[inh] (cathepsin L); for inhibition at 5 µM: 5 μM [inhibitor]. From the text: (§1) Inhibition of Cathepsin B, Cathepsin L and Papain by 1,2,4-thiadiazoles and 1,2,4-thiadiazole[4,5-a]benzimidazole derivatives: Enzyme Assays and Kinetic Measurements
(§2) Conditions for the above experiments can be found in the following references: Menard R. et al., Biochemistry 1990, 29, 6706-6713; Fox T. et al., Biochemistry 1992, 31, 12571-12576; Cannona E. et al., Biochemistry 1996, 35, 8149-8157. A typical experiment consisted of choosing an inhibitor concentration such that maximum inhibition could be achieved in less than two hours, monitoring the complete progress curve (i.e. fluorescence vs time), and analyzing the data. The analysis yield two parameters: the % inhibition once steady state was re ached, and a rate constant which represents the rate at which this steady state is reached. Typically, the enzyme activity decreases with time until the maximum level of inhibition is reached (i.e. steady state) where the enzyme activity remains constant. Since significant levels of activity could still be detected at steady state (i.e. inhibition is not complete), the data was fitted to equation (1), which is normally used for slow-binding reversible inhibitors. [formula]
(§3) % inhibition=(1-v1 /vo).100 (2)
(§4) In this equation, [P] represents the concentration of product (obtained from the flourescene readings), kabs is the first order rate constant to reach steady state, vo is the initial rate which corresponds to the rate in the absence of the inhibitor, and vi is the rate of the inhibited enzyme at steady state. The % inhibition was obtained by using equation (2), where the rate measured in the absence of the inhibitor was used for vo. An example of a simple mechanism for such a process is given below: [formula] For this mechanism, the value of kabs determined experimentally would correspond to:
(§5) The value of kabs varies with inhibitor concentration. Often koff is much slower than kon [inh] and kabs /[inh] can be used to approximate kon. This approach is used in this study and the results are shown in below: […]

Another data set has as its target Cathepsin B (Rattus norvegicus, UniProt P00787). Put plainly: Inhibition of Cathepsin B, enzyme assay and kinetic measurements. It counts as biochemical. To be noted: for kinact/KI: approximates kon, read-out: kabs /[inh] (cathepsin B); for inhibition at 200 µM: 200 μM [inhibitor].
Source text: as §1, §2, §3, §4, §5

The next data set has as its target T1, Papain (Carica papaya, UniProt P00784).
T1 sequence (P00784 134-345): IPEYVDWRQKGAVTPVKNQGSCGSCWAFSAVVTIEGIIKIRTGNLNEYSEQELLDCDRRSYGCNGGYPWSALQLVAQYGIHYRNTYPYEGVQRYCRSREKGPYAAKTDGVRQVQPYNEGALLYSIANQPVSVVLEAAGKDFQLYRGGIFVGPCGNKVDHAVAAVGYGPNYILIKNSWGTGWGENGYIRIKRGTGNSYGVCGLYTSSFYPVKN
In words: Inhibition of Papain, enzyme assay and kinetic measurements. The data set is classed as biochemical. To be noted: for kinact/KI: approximates kon, read-out: kabs /[inh] (papain); for inhibition at 200 µM: 200 μM [inhibitor] (printed 200 μm); for inhibition at 1 µM: 1 μM [inhibitor].
Source text: as §1, §2, §3, §4, §5

A short description of data set [1]: Reaction with benzyl mercaptan. It counts as physicochemical. As to conditions: organic solvent such as methanol. The source says: The chemical reactivity of monocyclic 1,2,4-thiadiazole as thiol trapping agent depends on the substituent at the 3 and 5 position of the ring system.
Another data set concerns the target T2, hog H^+ /K^+ ATPase (Sus scrofa, UniProt P19156).
T2 construct: Potassium stimulated ATP hydrolysis using hog gastric (GI) vesicles; from tissue; host or cells: hog gastric (GI) vesicles
In words: Gastric ATPase enzyme inhibition assay. The data set is classed as biochemical. To be noted: hog gastric vesicles, K+ stimulated ATP hydrolysis. On the procedure:
Gastric ATPase enzyme inhibition assay
The enzyme used is the hog H^+ /K^+ ATPase (Sachs, et al. J. Biol. Chem. 251:7690-7698, 1976). A modified procedure reported by Yoda A. and Hokin, L.E., Biochem. Res. Commun., 1970, 800-884 is used. Potassium stimulated ATP hydrolysis using hog gastric (GI) vesicles, a preparation enriched in H^+ /K^+ ATPase, is measured.
The difference between activity in the presence of Mg^++ and presence of Mg^++ and K^+ 0 is taken as enzyme activity. Nigericin, a K^+ ionophore, is also present in the (+)K^+ incubation mixture to provide access of K^+ to the vesicle interior. Hydrolysis activity is measured by quantitative analysis of a phosphomolybdate complex. […] The optical density of many drugs used for the inhibition of H^+ /K^+ ATPase interfere in this wavelength. Therefore, a modification of the as say was used wherein the phosphomolybdate complex was reduced with Fiske and Subbarow reducer (1-amino-2-naphthol-4-[…] plus sodium sulfite). This shifts the optical density from 3 20 nm for the oxidized phosphomolybdate complex to 600-700 nm. This modification has the added advantage of providing a means of automated assay when multiple samples being tested. In this modification, the optical density of the assay mixtures was read at 700 nm.
Basal Mg^++ levels are measured in […], 2 mM Na2 ATP, 40 mM Pipes-tris, pH 6.10. 20 mM KCl and 10 μg/ml nigericin is added to determine the extent of stimulation by K^+. Test compounds or vehicle are then added. Enzyme (10 μg/ml) is then added to initiate the reaction. The final volume is 200 μl. The protocol for these assays is shown below.
Zero blanks (water controls) and phosphate standards (200 μl) are added appropriate for assays used: […], 0.050, 0.075, 0.1 . . . 0.5 mM standards. The order of the addition of reagents generally follows as described above. However, it may be more preferable to add either enzyme before ATP if it is important to provide time for pre-cubation with test compounds. Time additions of the last reagent are used to provide a uniform assay time.
The reaction is run for 30 min. to 1 hour. The re action is stopped by addition of 50 μl of a solution prepared by adding 4 volumes of 2.5 M sulfric acid plus one volume of 1.25% (w/v) Fiske and Subbarow reagent. Colour is developed at room temperature for ten minutes and optical density at 700 nm is determined. In the event that a white precipitate forms, the clear supernatants (after mixing and setting) can be used for the determination of enzyme activity.

The nature of data set [2]: Acid stability in 6 molar hydrochloric acid. It counts as physicochemical. As to conditions: room temperature. As to the method:
Acid stability of 7-methoxy-3-[(4-methoxy-3,5-dimethyl-2-pyridyl)oxomethyl]-1,2,4-thiadiazolo[4,5-a]benzimidazole.
To examine acid stability of the captioned compound, the compound was dissolved in a minimum volume of methanol and the resulting solution was added to a 6 molar solution of hydrochloric acid.

Setting [3] is: steady state, 200 μM [inhibitor] (printed 200 μm).
Setting [4] is: steady state, 50 μM [inhibitor].

T2 sequence (P19156 2-1034 limits assumed): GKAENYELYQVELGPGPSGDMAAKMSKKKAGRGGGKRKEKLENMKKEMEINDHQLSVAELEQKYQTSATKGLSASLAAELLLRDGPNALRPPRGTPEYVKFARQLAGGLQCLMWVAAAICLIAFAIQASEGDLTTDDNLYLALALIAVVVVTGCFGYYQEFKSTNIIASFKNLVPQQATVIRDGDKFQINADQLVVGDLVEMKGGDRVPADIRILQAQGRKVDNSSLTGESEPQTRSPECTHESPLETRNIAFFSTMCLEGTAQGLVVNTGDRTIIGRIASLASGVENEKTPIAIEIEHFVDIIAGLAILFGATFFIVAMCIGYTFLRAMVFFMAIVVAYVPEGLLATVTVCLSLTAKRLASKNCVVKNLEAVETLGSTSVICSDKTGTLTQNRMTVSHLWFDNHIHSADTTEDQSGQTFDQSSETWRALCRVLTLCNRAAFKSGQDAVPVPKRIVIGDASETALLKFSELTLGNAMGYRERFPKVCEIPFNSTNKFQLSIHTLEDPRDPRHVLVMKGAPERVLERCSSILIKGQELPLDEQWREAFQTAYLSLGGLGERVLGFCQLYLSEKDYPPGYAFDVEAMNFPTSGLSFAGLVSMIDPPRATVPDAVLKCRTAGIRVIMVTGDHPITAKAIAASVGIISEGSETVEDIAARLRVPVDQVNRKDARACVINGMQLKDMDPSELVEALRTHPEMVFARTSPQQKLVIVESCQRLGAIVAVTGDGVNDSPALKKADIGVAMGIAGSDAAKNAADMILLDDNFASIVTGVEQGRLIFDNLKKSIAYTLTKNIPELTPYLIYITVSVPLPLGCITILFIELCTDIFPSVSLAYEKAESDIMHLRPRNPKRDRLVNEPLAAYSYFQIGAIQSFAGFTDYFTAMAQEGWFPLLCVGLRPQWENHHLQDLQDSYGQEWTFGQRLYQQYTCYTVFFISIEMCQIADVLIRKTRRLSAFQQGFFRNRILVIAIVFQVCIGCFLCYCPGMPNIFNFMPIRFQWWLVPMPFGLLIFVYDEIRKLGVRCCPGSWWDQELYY
T2 sequence (P18434 whole entry partner): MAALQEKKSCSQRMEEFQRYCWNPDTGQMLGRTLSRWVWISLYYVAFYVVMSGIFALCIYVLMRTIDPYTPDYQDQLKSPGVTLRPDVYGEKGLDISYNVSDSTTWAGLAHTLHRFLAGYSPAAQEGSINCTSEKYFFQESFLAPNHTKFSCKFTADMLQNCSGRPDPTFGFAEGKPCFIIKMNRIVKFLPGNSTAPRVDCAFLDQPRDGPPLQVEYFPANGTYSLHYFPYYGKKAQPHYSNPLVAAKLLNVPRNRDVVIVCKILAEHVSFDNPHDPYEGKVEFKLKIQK
Cathepsin B, sequence (P00787 80-339): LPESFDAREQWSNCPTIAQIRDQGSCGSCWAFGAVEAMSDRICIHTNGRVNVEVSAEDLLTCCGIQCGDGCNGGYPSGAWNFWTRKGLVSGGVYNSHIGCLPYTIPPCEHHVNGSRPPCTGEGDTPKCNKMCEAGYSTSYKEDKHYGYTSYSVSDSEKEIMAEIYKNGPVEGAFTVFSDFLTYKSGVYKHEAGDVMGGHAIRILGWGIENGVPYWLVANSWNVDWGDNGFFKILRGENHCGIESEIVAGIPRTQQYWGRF
Cathepsin L, sequence (P07711 114-333): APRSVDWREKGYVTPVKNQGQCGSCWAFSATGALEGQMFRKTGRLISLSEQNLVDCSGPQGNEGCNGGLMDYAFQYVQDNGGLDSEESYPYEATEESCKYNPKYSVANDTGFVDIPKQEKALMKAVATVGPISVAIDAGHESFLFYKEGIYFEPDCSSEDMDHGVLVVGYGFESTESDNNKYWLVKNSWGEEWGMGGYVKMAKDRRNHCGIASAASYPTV

One may read the inhibition as the drop in the measured response relative to a control, in per cent. A lower inhibition goes with a weak effect. Regarding `COC(=O)[C@@H]1CCCN1c1nsc2nc3ccccc3n12` [1,2,4-thiadiazolo [4,5-a]benzimidazol-3-yl-L-proline methyl ester], the kinact/KI at Cathepsin L is 1050 M⁻¹ s⁻¹; at Cathepsin B it was 626 M⁻¹ s⁻¹; at Papain, 356 M⁻¹ s⁻¹. In addition, the inhibition at 10 µM turned out to be 99% at Cathepsin L (steady state, 10 μM [inhibitor]) and 88% on Cathepsin B (steady state, 10 μM [inhibitor], % sign not given). Also, the inhibition at 0.26 µM at Papain (steady state, 0.26 μM [inhibitor]) is 97%.
`c1cncc(-c2nsc(-c3cccnc3)n2)c1` [3,5-di(3-pyridyl)-1,2,4-thiadiazole]: the “reaction with benzyl mercaptan” value in data set [1] is reported as “do not react with benzyl mercaptan”.
Broadly, the EC50 is the concentration giving half of the maximal effect. A higher EC50 goes with a less potent agent. As for `c1ccc2c(c1)nc1snc(N3CCNCC3)n12` [3-(1-piperazinyl)-1,2,4-thiadiazolo[4,5-a]benzimidazole], the EC50 at hog H^+ /K^+ ATPase was found to be 1000 nM.
Consider `CN1CCN(c2nsc3nc4ccccc4n23)CC1` [3-(4-methyl-1-piperazinyl)-1,2,4-thiadiazolo-[4,5-a]benzimidazole], for which the kinact/KI is 24 M⁻¹ s⁻¹ at Cathepsin L, 19 M⁻¹ s⁻¹ on Cathepsin B and 28 M⁻¹ s⁻¹ on Papain. Besides, the results for the inhibition at 200 µM against Cathepsin L (setting [3]), on Cathepsin B (steady state) and against Papain (steady state) were 98%, 68% and 99%, respectively. At hog H^+ /K^+ ATPase, the EC50 was 2000 nM.
Take `c1ccc2c(c1)nc1snc(CN3CCOCC3)n12` [3-(morpholinomethyl)-1,2,4-thiadiazolo[4,5-a]benzimidazole]: the kinact/KI at Cathepsin L is 7 M⁻¹ s⁻¹; on Cathepsin B, 8 M⁻¹ s⁻¹; at Papain it was 7 M⁻¹ s⁻¹. The inhibition at 200 µM is 80% at Cathepsin L (steady state, 200 μM [inhibitor], % sign not given); 60% on Cathepsin B (steady state); 92% against Papain (steady state). Further, the EC50 on hog H^+ /K^+ ATPase was determined as 200 nM.
Regarding `c1ccc2c(c1)nc1snc(OCCN3CCOCC3)n12` [3-[2-(N-morpholino)ethoxy]-1,2,4-thiadiazolo[4,5-a]benzimidazole], the kinact/KI at Cathepsin L was determined as 356 M⁻¹ s⁻¹; on Cathepsin B it was 107 M⁻¹ s⁻¹; on Papain, 5560 M⁻¹ s⁻¹. For the same compound, 25 µM produced 99% inhibition at Cathepsin L (steady state, 25 μM [inhibitor]). At Cathepsin B (setting [4]), this compound showed an inhibition at 50 µM of 91%. At Papain (steady state, 0.66 μM [inhibitor]), the inhibition at 0.66 µM came out at 99.6%.
On to `c1ccc2c(c1)nc1snc(NCCN3CCOCC3)n12` [3-[2-(N-morpholino)ethylamino]l,2,4-thiadiazolo-[4,5-a]benzimidazole], for which the EC50 on hog H^+ /K^+ ATPase amounted to 200 nM.
As for `O=C(c1ccccn1)c1nsc2nc3ccccc3n12` [3-[oxo(2-pyridyl)methyl]-1,2,4-thiadiazolo [4,5-a]benzimidazole], the kinact/KI on Cathepsin L worked out at 68 M⁻¹ s⁻¹; at Cathepsin B it was 15 M⁻¹ s⁻¹; on Papain it was 2480 M⁻¹ s⁻¹. The inhibition at 200 µM at Cathepsin L (setting [3]) stood at 99%; at Cathepsin B (steady state), 58%. Also, the inhibition at 1 µM against Papain (steady state) was found to be 79%.
As to `COc1nsc(N)n1` [3-methoxy-5-amino-1,2,4-thiadiazoles, 5-amino-3-methoxy-1,2,4-thiadiazole], the “reaction with benzyl mercaptan” value in data set [1] was “reacted with benzyl mercaptan”.
Still for that read-out and setting: under `Cc1nsc(NCc2ccccc2)n1` [3-methyl-5-benzylamino-1,2,4-thiadiazole] stands “do not react with benzyl mercaptan”; under `Cc1nsc(N(Cc2ccccc2)Cc2ccccc2)n1` [3-methyl-5-dibenzylamino-1,2,4-thiadiazole], “do not react with benzyl mercaptan”.
For `COc1nsc(NC(=O)N[C@@H](CC(C)C)C(=O)NCCC(C)C)n1` [Example T11AA], the kinact/KI on Cathepsin L was 3480 M⁻¹ s⁻¹; on Cathepsin B, 1060 M⁻¹ s⁻¹; at Papain it was 3900 M⁻¹ s⁻¹. The inhibition at 5 µM worked out at 99% against Cathepsin L (steady state) and 56% against Cathepsin B (steady state, 5 μM [inhibitor]). Also, the inhibition at 1 µM against Papain (steady state) is 97%.
Turning to `COc1ccc2[nH]c([S+]([O-])Cc3ncc(C)c(OC)c3C)nc2c1` (stereo not shown) [Omeprazole, reference compound], in data set [2], the acid stability result is recorded as “complete decomposition in a few minutes”.
Consider `O=C(O)c1nsc2nc3ccccc3n12` [sodium 3-carboxylato-1,2,4-thiadiazolo[4,5-albenzimidazole], for which the kinact/KI was determined as 184 M⁻¹ s⁻¹ at Cathepsin L, 34 M⁻¹ s⁻¹ on Cathepsin B and 131 M⁻¹ s⁻¹ at Papain. Besides, on Cathepsin L (setting [4]), 50 µM produced 98% inhibition. The figures for the inhibition at 200 µM against Cathepsin B (steady state) and against Papain (steady state) were 85% and 99.6%, respectively.
Regarding `CC(C)CCNC(=O)[C@H](CC(C)C)NC(=O)c1nsc2nc3ccccc3n12` [{1,2,4-thiadiazolo[4,5-a]benzimidazol-3-yl}-carbonyl-L-leucyl isoamylamide], the kinact/KI amounted to 307 M⁻¹ s⁻¹ at Cathepsin L and 500 M⁻¹ s⁻¹ at Papain. In addition, the inhibition at 5 µM was determined as 93% on Cathepsin L (steady state) and 95% on Papain (steady state, 5 μM [inhibitor]).
